In patent publication US20240376163A1, “PEPTIDE FOR INHIBITING CALCINEURIN AND USE THEREOF” (Seoul National University R&DB Foundation, priority 2023, published 2024):

Tested on: Jurkat T cells
Assay: mRNA sequencing of activated Jurkat T cells
Assay type: cell-based, human

Q: What does the source list for PEITVTPPTP [CABIN1-L-1-2]?
A: CRIM1 FPKM (P + I): 0.333 FPKM; CRTAM FPKM (P + I): 9.51 FPKM; CSF1 FPKM (P + I): 2.594 FPKM; CSF2 FPKM (P + I): 0.314 FPKM; CST7 FPKM (P + I): 3.175 FPKM; CXCL8 FPKM (P + I): 3.327 FPKM; CXCR3 FPKM (P + I): 1.803 FPKM; DSTYK FPKM (P + I): 3.595 FPKM; FBXO34 FPKM (P + I): 18.386 FPKM; FMNL2 FPKM (P + I): 3.019 FPKM; FOSL2 FPKM (P + I): 2.362 FPKM; FOXO1 FPKM (P + I): 3.736 FPKM; FXYD5 FPKM (P + I): 42.856 FPKM; FYN FPKM (P + I): 15.512 FPKM; GFOD1 FPKM (P + I): 6.312 FPKM; GRK5 FPKM (P + I): 8.975 FPKM; GTDC1 FPKM (P + I): 5.144 FPKM; IL2 FPKM (P + I): 12.964 FPKM; IL3 FPKM (P + I): 6.298 FPKM; IL21R FPKM (P + I): 5.255 FPKM; IL21R-AS1 FPKM (P + I): 3.991 FPKM; IQCJ-SCHIP1 FPKM (P + I): 1.234 FPKM; IRF4 FPKM (P + I): 2.092 FPKM; IRF8 FPKM (P + I): 1.914 FPKM; ISM1 FPKM (P + I): 3.737 FPKM; JAK2 FPKM (P + I): 8.45 FPKM; KCNK1 FPKM (P + I): 13.139 FPKM; KCNK5 FPKM (P + I): 4.904 FPKM; LAMP3 FPKM (P + I): 9.828 FPKM; LAX1 FPKM (P + I): 7.578 FPKM; LIF FPKM (P + I): 0.231 FPKM; LOC729603 FPKM (P + I): 3.329 FPKM; LRRC8B FPKM (P + I): 4.298 FPKM; LTBP4 FPKM (P + I): 9.568 FPKM; MAP2K3 FPKM (P + I): 43.237 FPKM; MIR6775 FPKM (P + I): 21.57 FPKM; MIR6821 FPKM (P + I): 25.116 FPKM; MYO1D FPKM (P + I): 5.995 FPKM; NDFIP1 FPKM (P + I): 24.432 FPKM; NFATC1 FPKM (P + I): 3.916 FPKM; NPDC1 FPKM (P + I): 5.64 FPKM; NR4A2 FPKM (P + I): 0.356 FPKM; NTRK1 FPKM (P + I): 1.657 FPKM; PAM FPKM (P + I): 1.934 FPKM; PDGFA FPKM (P + I): 8.169 FPKM; PELI1 FPKM (P + I): 8.465 FPKM; PHACTR2 FPKM (P + I): 2.791 FPKM; PHEX FPKM (P + I): 0.786 FPKM; PIM3 FPKM (P + I): 72.895 FPKM; PKIA FPKM (P + I): 18.138 FPKM; PLK3 FPKM (P + I): 7.036 FPKM; PLS3 FPKM (P + I): 0.37 FPKM; POU2AF1 FPKM (P + I): 2.971 FPKM; PPIF FPKM (P + I): 106.533 FPKM; PTPN6 FPKM (P + I): 20.806 FPKM; PTPN22 FPKM (P + I): 5.119 FPKM; RDH10 FPKM (P + I): 5.524 FPKM; REL FPKM (P + I): 5.699 FPKM; RGS16 FPKM (P + I): 5.595 FPKM; SCHIP1 FPKM (P + I): 1.333 FPKM; SERPINB2 FPKM (P + I): 14.103 FPKM; SHC4 FPKM (P + I): 0.686 FPKM; SLAMF1 FPKM (P + I): 0.275 FPKM; SLC35E4 FPKM (P + I): 1.517 FPKM; SORBS1 FPKM (P + I): 0.511 FPKM; SPRY1 FPKM (P + I): 4.901 FPKM; STAT5A FPKM (P + I): 3.055 FPKM; TAGAP FPKM (P + I): 8.731 FPKM; TBC1D4 FPKM (P + I): 13.191 FPKM; TBC1D20 FPKM (P + I): 18.427 FPKM; TDRD9 FPKM (P + I): 1.888 FPKM; TIAM2 FPKM (P + I): 0.301 FPKM; TM4SF1 FPKM (P + I): 0.907 FPKM; TNFRSF4 FPKM (P + I): 11.916 FPKM; TNFSF9 FPKM (P + I): 2.651 FPKM; TNFSF14 FPKM (P + I): 4.255 FPKM; TNS3 FPKM (P + I): 1.418 FPKM; VAMP1 FPKM (P + I): 14.752 FPKM; XCL1 FPKM (P + I): 1.144 FPKM; XCL2 FPKM (P + I): 2.074 FPKM; ZNF704 FPKM (P + I): 0.183 FPKM; ZNF827 FPKM (P + I): 1.372 FPKM; ABCB10 FPKM (P+I): 9.751 FPKM; ACTG1 FPKM (P+I): 799.981 FPKM; ADAM19 FPKM (P+I): 4.257 FPKM; ADD3 FPKM (P+I): 9.536 FPKM; ADORA2B FPKM (P+I): 6.969 FPKM; AGO2 FPKM (P+I): 14.51 FPKM; AIM1 FPKM (P+I): 27.486 FPKM; APOBEC3A_B FPKM (P+I): 14.665 FPKM; APOBEC3B FPKM (P+I): 59.895 FPKM; APOBEC3C FPKM (P+I): 14.323 FPKM; APOBEC3D FPKM (P+I): 8.981 FPKM; APOL2 FPKM (P+I): 102.003 FPKM; APOL6 FPKM (P+I): 46.762 FPKM; AQP3 FPKM (P+I): 52.98 FPKM; ARAP2 FPKM (P+I): 13.458 FPKM; ARC FPKM (P+I): 10.186 FPKM; ARHGAP23 FPKM (P+I): 1.985 FPKM; ARHGEF6 FPKM (P+I): 27.254 FPKM; ASAP1 FPKM (P+I): 9.052 FPKM; ATG14 FPKM (P+I): 11.252 FPKM; ATP2B4 FPKM (P+I): 10.46 FPKM; ATXN1 FPKM (P+I): 2.083 FPKM; BACH2 FPKM (P+I): 36.118 FPKM; BAI2 FPKM (P+I): 1.079 FPKM; BAIAP2-AS1 FPKM (P+I): 2.144 FPKM; BATF3 FPKM (P+I): 45.085 FPKM; BHLHE40 FPKM (P+I): 9.368 FPKM; BTG1 FPKM (P+I): 23.454 FPKM; C1QL1 FPKM (P+I): 0.756 FPKM; C1orf233 FPKM (P+I): 0.674 FPKM; C3 FPKM (P+I): 1.329 FPKM; C9orf9 FPKM (P+I): 6.009 FPKM; C10orf54 FPKM (P+I): 0.487 FPKM; C16orf46 FPKM (P+I): 3.705 FPKM; CASC15 FPKM (P+I): 2.572 FPKM; CBX4 FPKM (P+I): 11.578 FPKM; CBX6 FPKM (P+I): 65.604 FPKM; CCDC64 FPKM (P+I): 11.039 FPKM; CCDC71L FPKM (P+I): 16.319 FPKM; CCL1 FPKM (P+I): 0.415 FPKM; CCL3L1 FPKM (P+I): 0.079 FPKM; CCL4 FPKM (P+I): 4.062 FPKM; CCL4L1 FPKM (P+I): 0.328 FPKM; CCL4L2 FPKM (P+I): 0.328 FPKM; CCND2 FPKM (P+I): 0.99 FPKM; CD1A FPKM (P+I): 4.51 FPKM; CD1C FPKM (P+I): 2.59 FPKM; CD1D FPKM (P+I): 3.093 FPKM; CD27-AS1 FPKM (P+I): 4.613 FPKM; CD27 FPKM (P+I): 3.4 FPKM; CD55 FPKM (P+I): 12.082 FPKM; CD69 FPKM (P+I): 121.846 FPKM; CD83 FPKM (P+I): 41.173 FPKM; CDCA7 FPKM (P+I): 21.851 FPKM; CDT1 FPKM (P+I): 11.831 FPKM; CFD FPKM (P+I): 1.22 FPKM; CHI3L2 FPKM (P+I): 51.627 FPKM; CHRNA9 FPKM (P+I): 2.572 FPKM; CLEC2B FPKM (P+I): 54.119 FPKM; CNR2 FPKM (P+I): 0.552 FPKM; CORO2A FPKM (P+I): 1.623 FPKM; CRIM1 FPKM (P+I): 0.333 FPKM; CRTAM FPKM (P+I): 9.51 FPKM; CSRNP1 FPKM (P+I): 23.093 FPKM; CST7 FPKM (P+I): 3.175 FPKM; CTDSPL FPKM (P+I): 1.836 FPKM; CTTN FPKM (P+I): 15.629 FPKM; CXCL3 FPKM (P+I): 7.007 FPKM; CXCL9 FPKM (P+I): 7.221 FPKM; CXCL10 FPKM (P+I): 6.288 FPKM; CXCR3 FPKM (P+I): 1.803 FPKM; CYB5RL FPKM (P+I): 1.449 FPKM; DFNA5 FPKM (P+I): 9.395 FPKM; DHFR FPKM (P+I): 6.668 FPKM; DNAJB11 FPKM (P+I): 109.967 FPKM; DNAJC1 FPKM (P+I): 13.844 FPKM; DNPEP FPKM (P+I): 43.482 FPKM; DOK2 FPKM (P+I): 27.542 FPKM; DPY19L2P2 FPKM (P+I): 2.643 FPKM; DPYSL2 FPKM (P+I): 9.177 FPKM; DTX3L FPKM (P+I): 48.261 FPKM; DUSP2 FPKM (P+I): 97.06 FPKM; DUSP5 FPKM (P+I): 157.077 FPKM; E2F1 FPKM (P+I): 8.062 FPKM; E2F2 FPKM (P+I): 3.419 FPKM; EIF2AK3 FPKM (P+I): 9.816 FPKM; ENC1 FPKM (P+I): 9.268 FPKM; ENHO FPKM (P+I): 1.223 FPKM; ENPP1 FPKM (P+I): 51.27 FPKM; EPAS1 FPKM (P+I): 4.197 FPKM; EPHA3 FPKM (P+I): 2.536 FPKM; ERO1LB FPKM (P+I): 4.345 FPKM; ETV5 FPKM (P+I): 13.264 FPKM; EVI2A FPKM (P+I): 10.047 FPKM; FAM46C FPKM (P+I): 5.693 FPKM; FAM111B FPKM (P+I): 4.22 FPKM; FASLG FPKM (P+I): 1.715 FPKM; FBXO34 FPKM (P+I): 18.386 FPKM; FMNL2 FPKM (P+I): 3.019 FPKM; FOS FPKM (P+I): 4.53 FPKM; FOXO1 FPKM (P+I): 3.736 FPKM; FST FPKM (P+I): 6.872 FPKM; FURIN FPKM (P+I): 29.008 FPKM; FYB FPKM (P+I): 10.258 FPKM; GAMT FPKM (P+I): 11.98 FPKM; GBP1 FPKM (P+I): 87.487 FPKM; GBP2 FPKM (P+I): 38.881 FPKM; GBP3 FPKM (P+I): 68.757 FPKM; GBP4 FPKM (P+I): 9.209 FPKM; GBP5 FPKM (P+I): 262.945 FPKM; GDPD5 FPKM (P+I): 39.139 FPKM; GEM FPKM (P+I): 2.963 FPKM; GINS2 FPKM (P+I): 16.516 FPKM; GLIPR2 FPKM (P+I): 11.773 FPKM; GNAQ FPKM (P+I): 17.078 FPKM; GNG2 FPKM (P+I): 17.754 FPKM; GPR3 FPKM (P+I): 9.964 FPKM
